1 compound from patent publication US20020143018A1 (priority 2000, published 2002) can be followed below.

SMILES strings stand for the structures.

As a reminder, the inhibition is the relative decrease from the control value, in per cent.

The subject of the assay is Sarcocystis neurona strain SN3. Kind of assay: Microtiter Monolayer Disruption Assay (MMDA), inhibition of merozoite-induced cell destruction (CPE). The note with it: S. neurona merozoites 50,000/well on BT cell monolayers, compound added 2 hours after infection, crystal violet readout, read-out: Percent Inhibition of Cell Destruction. The assay is classed as cell-based. The protocol: In order to determine the scope of protection provided by praziquantel, in vitro testing was conducted. Sarcocystis neurona was evaluated for its sensitivity to this compound. Strain SN3 of Sarcocystis neurona was used.
Bovine turbinate (BT) cells were used for all in vitro tests. Cells were grown to confluency in 25 cm^2 flasks in RMPI 1640 media supplemented with 10% v/v fetal bovine serum (FBS), 100 Units of penicillin (g/mL), […] and 5×10^−2 mM of 2-mercaptoethanol. After cell confluence was obtained, cells were maintained in the same media with reduced FBS (2% v/v). Cell cultures were incubated at 37 C. in a humidified atmosphere containing 5% carbon dioxide and 95% air.
For growth of the parasite, BT cell monolayers were infected with parasites and examined with an inverted microscope for the development of lesions (cytopathic effect, “CPE”) or the presence of many extracellular merozoites. Once lesions were observed, or many extracellular parasites were present, the monolayer was scraped with the tip of a 5 mL pipette and 1 to 3 drops of the merozoite-containing fluid was transferred to two flasks of fresh BT cells. […]
This assay was used to determine if the parasites or compound were toxic for BT cells. […] Each well was visually monitored daily and the assay was stopped when 90-100% of the untreated merozoite infected cells had lysed (90-100% CPE). […]

For `O=C(C1CCCCC1)N1CC(=O)N2CCc3ccccc3C2C1` (centres unmarked) [Praziquantel, praziquantel], the inhibition at 10 µg/mL (10 μg/mL) stood at 51%. Moreover, where the note is “20 μg/mL”, the inhibition at 20 µg/mL came to 69%.
